According to patent US20080267882A1, “Imaging compounds, methods of making imaging compounds, methods of imaging, therapeutic compounds, methods of making therapeutic compounds, and methods of therapy” (Stanford University, priority 2007, published 2008):
Values belong to the compound of their own block, whether it stands above or below them.

Assays:
in vivo [1] = settings: mouse, iv, total radioactivity
Experimental: (§1) PET scans and image analysis were performed using a microPET R4 rodent model scanner (Siemens Medical Solutions) as previously reported (J Nucl Med 2006;47:113-121 and J Nucl Med 2005;46:1707-1718, each of which is incorporated herein by reference for the corresponding discussion). Each mouse was tail-vein injected with about 3.7 MBq (100 μCi) of ^18F-FPRGD2 under isoflurane anesthesia. The 30-min dynamic scan (1×30 s, 4×1 min, 1×1.5 min, 4×2 min, 1×2.5 min, 4×3 min, total of 15 frames) was started 1 min after injection. Five min static PET images were also acquired at 1 h and 2 h post-injection (p.i.). The images were reconstructed by a 2-dimensional ordered-subsets expectation maximum (OSEM) algorithm and no correction was applied for attenuation or scatter.
(§2) PET scans and image analysis were performed using a microPET R4 rodent model scanner (Siemens Medical Solutions) as previously reported. For U87MG tumor model, mice (n=3) were tail-vein injected with about 3.7 MBq (100 μCi) of ^18F-FPRGD4 under isoflurane anesthesia and then subjected to a 30-min dynamic scan (1×30 s, 4×1 min, 1×1.5 min, 4×2 min, 1×2.5 min, 4×3 min, total of 15 frames) starting from 1 min p.i. Five min static PET images were also acquired at 1, 2, and 3 h p.i. The images were reconstructed by 2-dimensional ordered-subsets expectation maximum (OSEM) algorithm. No attenuation or scatter correction was applied. […] The 5-min static PET scans was then acquired at 30 min and 1 h p.i. Multiple time point static scans were also obtained for orthotopic MDA-MB-435, c-neu oncomouse, and subcutaneous DU145 tumor models after tail-vein injected with 3.7 MBq of ^18F-FPRGD4.
(§3) For each microPET scan, regions of interest (ROIs) were drawn over the tumor, normal tissue, and major organs by using vendor software (ASI Pro 5.2.4.0) on decay-corrected whole-body coronal images. The maximum radioactivity concentration (accumulation) within a tumor or an organ was obtained from mean pixel values within the multiple ROI volume, which were converted to counts/mL/min by using a conversion factor. Assuming a tissue density of 1 g/mL, the ROIs were converted to counts/g/min and then divided by the administered activity to obtain an imaging ROI-derived % ID/g. […]
(§4) PET scans and image analysis were performed using a microPET R4 rodent model scanner (Siemens Medical Solutions) as previously reported (J Nucl Med. 2005;46:1707-1718 and J Nucl Med. 2006;47:113-121, each of which is incorporated herein by reference for the corresponding discussion). About 9.3 MBq of ^64Cu-DOTA-RGD multimer was intravenously injected into each mouse under isoflurane anesthesia. Five minute static scans were acquired at 30 min, 1 h, 2 h, 6 h, and 20 h p.i. The images were reconstructed by a 2-dimensional ordered-subsets expectation maximum (OSEM) algorithm and no correction was applied for attenuation and scatter. For each microPET scan, regions of interest (ROIs) were drawn over the tumor, normal tissue, and major organs on decay-corrected whole-body coronal images. The radioactivity concentration (accumulation) within a tumor was obtained from the maximum value within the multiple ROIs and then converted to % ID/g.
(§5) PET scans and image analysis were performed using a microPET R4 rodent model scanner (Siemens Medical Solutions) as previously reported (J Nucl Med. 2006;47:113-21 and J Nucl Med. 2005;46:1707-18, which is incorporated herein by reference for the corresponding discussion). […] The 60-min dynamic scan (5×1 min, 10×3 min, 5×5 min, total of 20 frames) was started 1 min after injection. A 2 h time point static scan was also acquired after the 60 min dynamic scan. Five min static PET images were also acquired separately at 30 min, 1 h and 2 h time points post-injection (p.i.) for another set of tumor-bearing mice (n=3/tracer). The images were reconstructed by a 2-dimensional ordered-subsets expectation maximum (OSEM) algorithm and no correction was necessary for attenuation or scatter correction. […]

in vivo [2] = settings: c-neu oncomouse (MMTV/c-neu transgenic), mouse, iv, total radioactivity
Experimental: All animal experiments were performed under a protocol approved by Stanford's Administrative Panel on Laboratory Animal Care. […] The c-neu oncomouse (Charles River Laboratories, Charles River, Canada) is a spontaneous tumor-bearing model that carries an activated c-neu oncogene driven by a mouse mammary tumor virus (MMTV) promoter (Cell 1988;54:105-115, which is incorporated herein by reference for the corresponding discussion). Transgenic mice uniformly expressing the MMTV/c-neu gene develop mammary adenocarcinomas between 4 and 8 months postpartum that involve the entire epithelium in each gland. […] Each mouse was tail-vein injected with about 3.7 MBq (100 μCi) of ^18[…]2 under isoflurane anesthesia. The 30-min dynamic scan (1×30 s, 4×1 min, 1×1.5 min, 4×2 min, 1×2.5 min, 4×3 min, total of 15 frames) was started 1 min after injection. Five min static PET images were also acquired at 1 h and 2 h post-injection (p.i.). The images were reconstructed by a 2-dimensional ordered-subsets expectation maximum (OSEM) algorithm and no correction was applied for attenuation or scatter. […] Animal procedures were performed according to a protocol approved by the Stanford University Institutional Animal Care and Use Committee. […] The c-neu oncomouse (Charles River Laboratories, Charles River, Canada) is a spontaneous tumor-bearing model that carries an activated c-neu oncogene driven by a mouse mammary tumor virus (MMTV) promoter (Cell. 1988;54:105-115, which is incorporated herein by reference for the corresponding discussion). Transgenic mice uniformly expressing the MMTV/c-neu gene develop mammary adenocarcinomas between 4 and 8 months postpartum that involve the entire epithelium in each gland. […] PET scans and image analysis were performed using a microPET R4 rodent model scanner (Siemens Medical Solutions) as previously reported. […] Five min static PET images were also acquired at 1, 2, and 3 h p.i. The images were reconstructed by 2-dimensional ordered-subsets expectation maximum (OSEM) algorithm. No attenuation or scatter correction was applied. […] The 5-min static PET scans was then acquired at 30 min and 1 h p.i. […] Animal procedures were performed according to a protocol approved by Stanford University Institutional Animal Care and Use Committee. […] Transgenic mice uniformly expressing the MMTV/c-neu gene develop mammary adenocarcinomas (4 to 8 months postpartum) that involve the entire epithelium in each gland. […] Five minute static scans were acquired at 30 min, 1 h, 2 h, 6 h, and 20 h p.i. […] The radioactivity concentration (accumulation) within a tumor was obtained from the maximum value within the multiple ROIs and then converted to % ID/g.

in vivo [3] = settings: female, athymic nude, mouse, total radioactivity
Experimental: (§6) All mice were sacrificed and dissected at 20 h post-injection (p.i.) of the tracer. Blood, U87MG tumor, major organs and tissues were collected and wet weighed. The radioactivity in the tissue was measured using a γ-counter (Packard). The results were presented as percentage injected dose per gram of tissue (% ID/g).

U87MG tumor-bearing mice = assay: in vivo; settings: athymic nude, mouse, iv, 3.7 MBq, 1 h
Experimental: as §1, §2, §3, §4, §5

in vivo [4] = settings: female, nude, mouse, total radioactivity
Experimental: as §6, with “1” for “20”, “after injection” for “post-injection (p.i.)”, “Blood,” for “Blood, U87MG”

[5] = female, athymic nude, 10 mg/kg, U87MG tumor uptake with blocking
[6] = female, athymic nude, 9.3 MBq, U87MG tumor uptake
[7] = female, athymic nude, U87MG tumor uptake
[8] = athymic nude, 3.7 MBq, U87MG tumor uptake
[9] = nude, 3.7 MBq, U87MG tumor uptake

tissue uptake at 2 h (in vivo [1]; [5]): 1.7 ± 0.2 %ID/g
tissue uptake at 6 h (in vivo [1]; [6]): 10.5 ± 0.7 %ID/g
tissue uptake at 20 h (in vivo [1]; [6]): 10.3 ± 1 %ID/g
tissue uptake at 0.5 h (in vivo [1]; [7]): 11.7 ± 0.7 %ID/g
tissue uptake at 1 h (in vivo [1]; [7]): 10.6 ± 0.7 %ID/g
tissue uptake at 2 h (in vivo [1]; [7]): 10.6 ± 0.3 %ID/g
tissue uptake at 20 h (in vivo [2]; 9.3 MBq): 6.6 ± 1.5 %ID/g
tissue uptake at 1 h (in vivo [2]): 8.9 ± 2.1 %ID/g
tissue uptake at 20 h (in vivo [3]): 27 ± 3.5 %ID/g
SMILES: N=C(N)NCCC[C@@H]1NC(=O)[C@H](CCCCNC(=O)CC[C@H](NC(=O)CC[C@H](NC(=O)CC[C@H](NC(=O)CN2CCN(CC(=O)O)CCN(CC(=O)O)CCN(CC(=O)O)CC2)C(=O)N[C@@H](CCC(=O)N[C@@H](CCC(=O)NCCCC[C@@H]2NC(=O)[C@@H](Cc3ccc(O)cc3)NC(=O)[C@H](CC(=O)O)NC(=O)CNC(=O)[C@H](CCCNC(=N)N)NC2=O)C(=O)NCCCC[C@@H]2NC(=O)[C@@H](Cc3ccc(O)cc3)NC(=O)[C@H](CC(=O)O)NC(=O)CNC(=O)[C@H](CCCNC(=N)N)NC2=O)C(=O)N[C@@H](CCC(=O)NCCCC[C@@H]2NC(=O)[C@@H](Cc3ccc(O)cc3)NC(=O)[C@H](CC(=O)O)NC(=O)CNC(=O)[C@H](CCCNC(=N)N)NC2=O)C(=O)NCCCC[C@@H]2NC(=O)[C@@H](Cc3ccc(O)cc3)NC(=O)[C@H](CC(=O)O)NC(=O)CNC(=O)[C@H](CCCNC(=N)N)NC2=O)C(=O)N[C@@H](CCC(=O)NCCCC[C@@H]2NC(=O)[C@@H](Cc3ccc(O)cc3)NC(=O)[C@H](CC(=O)O)NC(=O)CNC(=O)[C@H](CCCNC(=N)N)NC2=O)C(=O)NCCCC[C@@H]2NC(=O)[C@@H](Cc3ccc(O)cc3)NC(=O)[C@H](CC(=O)O)NC(=O)CNC(=O)[C@H](CCCNC(=N)N)NC2=O)C(=O)NCCCC[C@@H]2NC(=O)[C@@H](Cc3ccc(O)cc3)NC(=O)[C@H](CC(=O)O)NC(=O)CNC(=O)[C@H](CCCNC(=N)N)NC2=O)NC(=O)[C@@H](Cc2ccc(O)cc2)NC(=O)[C@H](CC(=O)O)NC(=O)CNC1=O [^64Cu-DOTA-RGD octamer, metal not drawn]

tissue uptake at 0.5 h (in vivo [1]; [8]): 2.6 ± 0.2 %ID/g
tissue uptake at 1 h (in vivo [1]; [8]): 2.8 ± 0.11 %ID/g
tissue uptake at 2 h (in vivo [1]; [8]): 1.7 ± 0.1 %ID/g
tissue uptake at 1 h (in vivo [1]; athymic nude, 3.7 MBq, kidney uptake): 2 %ID/g
tissue uptake at 1 h (in vivo [1]; [5]): 0.31 ± 0.02 %ID/g
tissue uptake at 5 min (in vivo [1]; [9]): 4.39 %ID/g
tissue uptake at 0.25 h (in vivo [1]; [9]): 3.46 %ID/g
tissue uptake at 0.5 h (in vivo [1]; [9]): 2.79 %ID/g
tissue uptake at 1 h (in vivo [1]; [9]): 2.34 %ID/g
tissue uptake at 2 h (in vivo [1]; [9]): 1.89 %ID/g
tissue uptake at 1 h (in vivo [1]; nude, 3.7 MBq, kidney uptake): 4.6 %ID/g
U87MG tumor uptake (U87MG tumor-bearing mice): 2.2±0.1 % ID/g
tissue uptake at 1 h (in vivo [4]; 10 mg/kg, tumor uptake with blocking): 0.21 ± 0.03 %ID/g
tissue uptake at 1 h (in vivo [4]; 3.7 MBq, kidney uptake): 4.3 ± 0.25 %ID/g
tissue uptake at 1 h (in vivo [4]; 3.7 MBq, tumor uptake): 3.82 ± 0.7 %ID/g
tissue uptake at 1 h (in vivo [4]; 3.7 MBq, uptake values in the other major organs): ≤ 1 %ID/g
SMILES: N=C(N)NCCC[C@@H]1NC(=O)[C@H](CCCCNC(=O)CC[C@H](NC(=S)Nc2ccc(C[C@H]3CN(CC(=O)O)CCN(CC(=O)O)CCN3CC(=O)O)cc2)C(=O)NCCCC[C@@H]2NC(=O)[C@@H](Cc3ccc(O)cc3)NC(=O)[C@H](CC(=O)O)NC(=O)CNC(=O)[C@H](CCCNC(=N)N)NC2=O)NC(=O)[C@@H](Cc2ccc(O)cc2)NC(=O)[C@H](CC(=O)O)NC(=O)CNC1=O [^68Ga-NOTA-RGD2, metal not drawn]
